US20080221330A1, “Mutilin-Derivative Substituted at Position 12” (priority 2004, published 2008)
Where a name gives a salt, the structure may show the parent alone.

Legend:
S. pneumoniae IID 553 = test: Minimum inhibitory concentration (MIC) by NCCLS agar dilution technique; assay type: cell-based
Method: (§1) The minimum inhibitory concentration (MIC) was determined for each compound by NCCLS agar dilution technique (Methods for dilution antimicrobial susceptibility tests for bacteria that grow aerobically; approved standard-sixth edition. […] The results are shown in Table below and indicate that the compounds of the present invention have high antimicrobial activity.

S. aureus 209P = test: as above; assay type: cell-based
Method: as §1

Row | Structure (SMILES) | minimum inhibitory concentration (MIC), in vitro antimicrobial activity (S. pneumoniae IID 553) | minimum inhibitory concentration (MIC), in vitro antimicrobial activity (S. aureus 209P)
1 | CC1C(O)C(C)(C)CC(OC(=O)NC(=O)C2CN3CCC2C3)C2(C)C(C)CCC13CCC(=O)C32.Cl [Example 2, 14-{(3R,4S)-1-azabicyclo[2.2.1]heptane-3-carbonyl}carbamoyl-12-desethenyl-12-methylmutilin hydrochloride] | 1 | 0.125
2 | C=CCC1(C)CC(OC(=O)NC(=O)C2CN3CCC2C3)C2(C)C(C)CCC3(CCC(=O)C32)C(C)C1O.Cl [Example 4, 14-{(3R,4S)-1-azabicyclo[2.2.1]heptane-3-carbonyl}carbamoyl-12-desethenyl-12-(1-propene-3-yl)mutilin hydrochloride] | 0.5 | 0.125
3 | CCC[C@]1(C)C[C@@H](OC(=O)NC(=O)[C@H]2CN3CC[C@@H]2C3)[C@@]2(C)C3C(=O)CCC3(CC[C@H]2C)[C@@H](C)[C@@H]1O (stereo partly drawn) [Example 17, 14-{(3R,4S)-1-azabicyclo[2.2.1]heptane-3-carbonyl}carbamoyl-12-desethenyl-12-propylmutilin hydrochloride] | 2 | 0.125
4 | CCCC[C@]1(C)C[C@@H](OC(=O)NC(=O)[C@H]2CN3CC[C@@H]2C3)[C@@]2(C)C3C(=O)CCC3(CC[C@H]2C)[C@@H](C)[C@@H]1O (stereo partly drawn) [Example 18, 12-butyl-14-{(3R,4S)-1-azabicyclo[2.2.1]heptane-3-carbonyl}car bamoyl-12-desethenylmutilin] | 2 | 0.125
5 | C/C=C/C[C@]1(C)C[C@@H](OC(=O)NC(=O)[C@H]2CN3CC[C@@H]2C3)[C@@]2(C)C3C(=O)CCC3(CC[C@H]2C)[C@@H](C)[C@@H]1O (stereo partly drawn) [Example 20, 14-{(3R,4S)-1-azabicyclo[2.2.1]heptane-3-carbonyl}carbamoyl-12-[(E)-2-butene-4-yl]-12-desethenylmutilin] | 0.5 | 0.06
6 | C=C[C@]1(C)C[C@@H](OC(=O)CSCCN(CC)CC)[C@]2(C)[C@H](C)CC[C@]3(CCC(=O)[C@H]32)[C@@H](C)[C@@H]1O [tiamulin, reference compound] | 1-2 | 0.06-0.125
